{
  "source": "ChEMBL document CHEMBL5375972",
  "about": "“Discovery of Novel 2,3-Dihydro-1H-indene-5-sulfonamide NLRP3 Inflammasome Inhibitors Targeting Colon as a Potential Therapy for Colitis” (J Med Chem, 2023)",
  "key": {"[1]": {"assay": "Subacute toxicity in C57BL/6 mouse assessed as body weight gain at 100 mg/kg,ip administrated for 14 days", "type": "organism-based", "settings": "in vivo, 336 h, time 14 day"}, "[2]": {"assay": "Half life in Sprague-Dawley rat at 1 mg/kg,iv measured after 24 hrs by HPLC-MS/MS analysis", "type": "ADME, organism-based", "settings": "in vivo"}, "[3]": {"assay": "Clearance in Sprague-Dawley rat at 1 mg/kg,iv measured after 24 hrs by HPLC-MS/MS analysis", "type": "ADME, organism-based", "settings": "in vivo"}, "[4]": {"assay": "Acute toxicity in Kunming mouse model assessed as behavioral abnormalities at 1000 mg/kg,IG administration for 7 days", "type": "organism-based", "settings": "in vivo, po, 168 h, time 7 day"}, "[5]": {"assay": "Subacute toxicity in C57BL/6 mouse assessed as colon histological changes at 10 mg/kg,ip administrated for 14 days", "type": "organism-based", "settings": "in vivo, 336 h, time 14 day"}, "[6]": {"assay": "Drug distribution in Sprague-Dawley rat kidney at 1 mg/kg,iv measured for 0.5 to 2 hrs by HPLC-MS/MS analysis", "type": "ADME, organism-based", "settings": "in vivo, time 0.5-2 hrs"}, "[7]": {"assay": "Acute toxicity in Kunming mouse model assessed as lethargy at 1000 mg/kg,IG administration for 7 days", "type": "organism-based", "settings": "in vivo, po, 168 h, time 7 day"}, "[8]": {"assay": "Acute toxicity in Kunming mouse model assessed as change in body weight at 2000 mg/kg,IG administration for 7 days", "type": "organism-based", "settings": "in vivo, po, 168 h, time 7 day"}, "[9]": {"assay": "Stability of compound in rat liver measured for 48 hrs", "type": "ADME, tissue-based"}, "Mus musculus [10]": {"tested_on": "Mus musculus", "assay": "Anti-inflammatory activity in C57BL/6 mouse assessed as inhibition of LPS-induced IL-1beta secretion at 10 mg/kg,ip administrated for 1 hr followed by LPS stimulation for 2.5 hrs by ELISA analysis", "type": "functional, organism-based"}, "[11]": {"assay": "Subacute toxicity in C57BL/6 mouse assessed as change in lung weight at 100 mg/kg,ip administrated for 14 days", "type": "organism-based", "settings": "in vivo, 336 h, time 14 day"}, "Mus musculus [12]": {"tested_on": "Mus musculus", "assay": "Anti-inflammatory activity in DSS-induced ulcerative colitis C57BL/6 mouse model assessed as reduction in disease activity index (DAI) score at 10 mg/kg,ip administrated for 9 days", "type": "functional, organism-based", "settings": "time 9.0 day"}, "[13]": {"assay": "Acute toxicity in Kunming mouse model assessed as lethal dose at IG administration for 7 days", "settings": "in vivo, po, time 7 day"}, "[14]": {"assay": "Acute toxicity in Kunming mouse model assessed as lethargy at 2000 mg/kg,IG administration for 7 days", "type": "organism-based", "settings": "in vivo, po, 168 h, time 7 day"}, "[15]": {"assay": "Subacute toxicity in C57BL/6 mouse assessed as change in spleen weight at 10 mg/kg,ip administrated for 14 days", "type": "organism-based", "settings": "in vivo, 336 h, time 14 day"}, "[16]": {"assay": "Stability of compound in rat plasma measured for 48 hrs", "type": "ADME, cell-free"}, "Mus musculus [17]": {"tested_on": "Mus musculus", "assay": "Anti-inflammatory activity in DSS-induced ulcerative colitis C57BL/6 mouse model assessed as decrease in IL-18 expression in colon at 10 mg/kg,ip administrated for 9 days by immunohistochemistry analysis", "type": "functional, organism-based", "settings": "time 9.0 day"}, "[18]": {"assay": "Drug distribution in Sprague-Dawley rat colon at 1 mg/kg,iv measured for 0.5 hrs by HPLC-MS/MS analysis", "type": "ADME, organism-based", "settings": "read-out: Ct"}, "[19]": {"assay": "Acute toxicity in Kunming mouse model assessed as anorexia at 2000 mg/kg,IG administration for 7 days", "type": "organism-based", "settings": "in vivo, po, 168 h, time 7 day"}, "[20]": {"assay": "Acute toxicity in Kunming mouse model assessed as anorexia at 1000 mg/kg,IG administration for 7 days", "type": "organism-based", "settings": "in vivo, po, 168 h, time 7 day"}, "[21]": {"assay": "Subacute toxicity in C57BL/6 mouse assessed as liver histological changes at 10 mg/kg,ip administrated for 14 days", "type": "organism-based", "settings": "in vivo, 336 h, time 14 day"}, "[22]": {"assay": "Subacute toxicity in C57BL/6 mouse assessed as kidney histological changes at 100 mg/kg,ip administrated for 14 days", "type": "organism-based", "settings": "in vivo, 336 h, time 14 day"}, "[23]": {"assay": "Subacute toxicity in C57BL/6 mouse assessed as liver histological changes at 100 mg/kg,ip administrated for 14 days", "type": "organism-based", "settings": "in vivo, 336 h, time 14 day"}, "[24]": {"assay": "Subacute toxicity in C57BL/6 mouse assessed as change in kidney weight at 10 mg/kg,ip administrated for 14 days", "type": "organism-based", "settings": "in vivo, 336 h, time 14 day"}, "[25]": {"assay": "Subacute toxicity in C57BL/6 mouse assessed as change in kidney weight at 100 mg/kg,ip administrated for 14 days", "type": "organism-based", "settings": "in vivo, 336 h, time 14 day"}, "[26]": {"assay": "Subacute toxicity in C57BL/6 mouse assessed as change in spleen weight at 100 mg/kg,ip administrated for 14 days", "type": "organism-based", "settings": "in vivo, 336 h, time 14 day"}, "[27]": {"target": "NLR family CARD domain-containing protein 4 (Mus musculus) (UniProt Q3UP24)", "sequence (Q3UP24 whole entry, the tested form may be a part)": "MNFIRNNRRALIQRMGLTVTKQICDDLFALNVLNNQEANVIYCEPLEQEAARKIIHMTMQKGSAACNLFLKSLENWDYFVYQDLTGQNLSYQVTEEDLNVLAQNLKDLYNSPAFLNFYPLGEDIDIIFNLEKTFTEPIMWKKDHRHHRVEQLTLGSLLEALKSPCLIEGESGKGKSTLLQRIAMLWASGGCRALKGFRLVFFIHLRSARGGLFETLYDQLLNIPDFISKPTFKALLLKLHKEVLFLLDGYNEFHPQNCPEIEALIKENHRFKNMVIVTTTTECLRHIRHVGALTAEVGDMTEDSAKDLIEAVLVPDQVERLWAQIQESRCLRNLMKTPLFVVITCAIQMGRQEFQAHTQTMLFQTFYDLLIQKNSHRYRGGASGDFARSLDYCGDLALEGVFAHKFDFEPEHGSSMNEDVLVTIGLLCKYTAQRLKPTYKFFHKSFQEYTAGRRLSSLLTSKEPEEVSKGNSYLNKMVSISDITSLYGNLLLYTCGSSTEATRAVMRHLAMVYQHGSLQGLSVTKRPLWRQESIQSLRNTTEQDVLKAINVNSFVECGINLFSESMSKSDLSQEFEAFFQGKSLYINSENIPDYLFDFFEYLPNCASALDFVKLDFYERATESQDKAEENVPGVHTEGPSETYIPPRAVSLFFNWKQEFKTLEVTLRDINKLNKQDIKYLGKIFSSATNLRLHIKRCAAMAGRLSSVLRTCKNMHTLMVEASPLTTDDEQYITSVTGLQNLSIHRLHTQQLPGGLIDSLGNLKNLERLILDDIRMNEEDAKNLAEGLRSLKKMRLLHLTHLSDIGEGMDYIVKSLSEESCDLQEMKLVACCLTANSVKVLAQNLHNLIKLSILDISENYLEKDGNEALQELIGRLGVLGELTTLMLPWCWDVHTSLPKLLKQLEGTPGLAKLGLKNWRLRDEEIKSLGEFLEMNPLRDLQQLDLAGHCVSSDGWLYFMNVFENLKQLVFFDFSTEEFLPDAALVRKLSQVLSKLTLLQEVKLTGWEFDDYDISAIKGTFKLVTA", "assay": "Inhibition of NLRC4 inflammasome in mouse J774.A1 cells assessed as inhibition of LPS/flagellin-induced IL-1 beta secretion at 10 uM pretreated with LPS and compound for 1 hr followed by flagellin addition measured after 6 hrs by ELISA", "type": "cell-based", "settings": "time 7.0 hrs"}, "[28]": {"assay": "Subacute toxicity in C57BL/6 mouse assessed as heart histological changes at 10 mg/kg,ip administrated for 14 days", "type": "organism-based", "settings": "in vivo, 336 h, time 14 day"}, "[29]": {"assay": "Subacute toxicity in C57BL/6 mouse assessed as change in liver weight at 10 mg/kg,ip administrated for 14 days", "type": "organism-based", "settings": "in vivo, 336 h, time 14 day"}, "[30]": {"assay": "Drug distribution in Sprague-Dawley rat small intestine at 1 mg/kg,iv measured for 0.5 to 2 hrs by HPLC-MS/MS analysis", "type": "ADME, organism-based", "settings": "in vivo, time 0.5-2 hrs"}, "[31]": {"assay": "Cytotoxicity against mouse J774.A1 cells incubated for 24 hrs by resazurin reagent based assay", "type": "toxicity, cell-based"}, "[32]": {"assay": "Acute toxicity in Kunming mouse model assessed as clonic convulsion at 2000 mg/kg,IG administration for 7 days", "type": "organism-based", "settings": "in vivo, po, 168 h, time 7 day"}, "Mus musculus [33]": {"tested_on": "Mus musculus", "assay": "Anti-inflammatory activity in DSS-induced ulcerative colitis C57BL/6 mouse model assessed as reduction in inflammatory cell infiltration in colon at 10 mg/kg,ip administrated for 9 days by Hematoxylin-eosin staining based microscopic analysis", "type": "functional, organism-based", "settings": "time 9.0 day"}, "[34]": {"assay": "Subacute toxicity in C57BL/6 mouse assessed as change in colon weight at 100 mg/kg,ip administrated for 14 days", "type": "organism-based", "settings": "in vivo, 336 h, time 14 day"}, "[35]": {"target": "NACHT, LRR and PYD domains-containing protein 3 (Homo sapiens, UniProt Q96P20)", "sequence (Q96P20 whole entry, the tested form may be a part)": "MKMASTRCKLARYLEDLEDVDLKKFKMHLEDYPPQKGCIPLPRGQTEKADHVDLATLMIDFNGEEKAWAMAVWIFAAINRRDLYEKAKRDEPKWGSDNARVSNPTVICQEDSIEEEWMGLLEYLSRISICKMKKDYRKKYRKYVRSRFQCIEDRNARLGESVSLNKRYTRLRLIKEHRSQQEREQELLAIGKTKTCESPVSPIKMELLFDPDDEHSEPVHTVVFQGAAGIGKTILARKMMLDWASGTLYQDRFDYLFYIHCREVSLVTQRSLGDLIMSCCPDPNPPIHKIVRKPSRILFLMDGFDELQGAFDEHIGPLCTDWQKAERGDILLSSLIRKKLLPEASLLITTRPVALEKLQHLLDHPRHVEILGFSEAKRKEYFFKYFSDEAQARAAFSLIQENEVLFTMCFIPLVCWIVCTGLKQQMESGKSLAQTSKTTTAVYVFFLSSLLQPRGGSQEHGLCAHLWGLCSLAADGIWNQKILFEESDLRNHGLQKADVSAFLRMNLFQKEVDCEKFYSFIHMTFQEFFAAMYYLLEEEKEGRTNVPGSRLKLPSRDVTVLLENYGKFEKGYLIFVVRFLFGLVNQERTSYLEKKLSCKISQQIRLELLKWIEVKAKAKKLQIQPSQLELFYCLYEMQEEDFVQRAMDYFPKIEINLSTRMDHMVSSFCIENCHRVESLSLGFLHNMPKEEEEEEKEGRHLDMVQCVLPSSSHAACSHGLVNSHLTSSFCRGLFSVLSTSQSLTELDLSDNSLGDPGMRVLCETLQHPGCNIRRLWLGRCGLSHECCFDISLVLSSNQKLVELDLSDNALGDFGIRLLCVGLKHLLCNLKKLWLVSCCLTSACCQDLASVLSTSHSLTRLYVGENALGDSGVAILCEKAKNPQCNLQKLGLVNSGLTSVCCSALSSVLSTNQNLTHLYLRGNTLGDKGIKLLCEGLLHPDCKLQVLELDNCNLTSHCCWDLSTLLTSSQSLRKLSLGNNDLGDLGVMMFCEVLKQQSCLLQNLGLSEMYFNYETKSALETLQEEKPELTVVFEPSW", "assay": "Inhibition of NLRP3 inflammasome in human U-937 cells assessed as downregulation of LPS/ATP-induced caspase-1 p20 expression at 3 to 30 uM primed with LPS for 4.5 hrs followed by compound addition for 2.5 hrs and stimulated with […] for 13 hrs by Western blotting analysis", "type": "cell-based", "settings": "dose 3-30 µM, time 15.5 hrs"}, "Mus musculus [36]": {"tested_on": "Mus musculus", "assay": "Anti-inflammatory activity in DSS-induced ulcerative colitis C57BL/6 mouse model assessed as decrease in ASC expression in colon at 10 mg/kg,ip administrated for 9 days by immunohistochemistry analysis", "type": "functional, organism-based", "settings": "time 9.0 day"}, "[37]": {"assay": "Subacute toxicity in C57BL/6 mouse assessed as colon histological changes at 100 mg/kg,ip administrated for 14 days", "type": "organism-based", "settings": "in vivo, 336 h, time 14 day"}, "[38]": {"assay": "Subacute toxicity in C57BL/6 mouse assessed as heart histological changes at 100 mg/kg,ip administrated for 14 days", "type": "organism-based", "settings": "in vivo, 336 h, time 14 day"}, "[39]": {"assay": "Acute toxicity in Kunming mouse model assessed as behavioral abnormalities at 2000 mg/kg,IG administration for 7 days", "type": "organism-based", "settings": "in vivo, po, 168 h, time 7 day"}, "Mus musculus [40]": {"tested_on": "Mus musculus", "assay": "Anti-inflammatory activity in DSS-induced ulcerative colitis C57BL/6 mouse model assessed as decrease in caspase-1 p20 protein expression in colon at 10 mg/kg,ip administrated for 9 days by Western blotting analysis", "type": "functional, organism-based", "settings": "time 9.0 day"}, "Mus musculus [41]": {"tested_on": "Mus musculus", "assay": "Anti-inflammatory activity in DSS-induced ulcerative colitis C57BL/6 mouse model assessed as decrease in caspase-1 expression in colon at 10 mg/kg,ip administrated for 9 days by immunohistochemistry analysis", "type": "functional, organism-based", "settings": "time 9.0 day"}},
  "note": "The source made the active and inactive calls. The calls are words filed in the database; no cut-off is given here.",
  "data": [
    {"smiles": "CCCNS(=O)(=O)c1ccc2c(c1)CC(N(Cc1cc(Cl)ccc1OCCOC)C(=O)c1cc3ccccc3o1)C2", "note": "(racemic)", "values": [
      {"measurement": "Activity", "setting": "[1]", "value": "Toxic"},
      {"measurement": "half-life", "setting": "[2]", "value": 1.5, "unit": "h"},
      {"measurement": "clearance", "setting": "[3]", "value": 78.4, "unit": "mL/min/kg"},
      {"measurement": "Activity", "setting": "[4]", "value": "Non-Toxic"},
      {"measurement": "Activity", "setting": "[5]", "value": "Non-Toxic"},
      {"measurement": "Drug uptake", "setting": "[6]", "value": "Active"},
      {"measurement": "Activity", "setting": "[7]", "value": "Non-Toxic"},
      {"measurement": "Activity", "setting": "[8]", "value": "Non-Toxic"},
      {"measurement": "Stability", "setting": "[9]", "value": "Stable"},
      {"measurement": "Activity", "setting": "Mus musculus [10]", "value": "Active"},
      {"measurement": "Activity", "setting": "[11]", "value": "Non-Toxic"},
      {"measurement": "Activity", "setting": "Mus musculus [12]", "value": "Active"},
      {"measurement": "LD50 at 168 h", "setting": "[13]", "value": 2000, "unit": "mg/kg"},
      {"measurement": "Activity", "setting": "[14]", "value": "Non-Toxic"},
      {"measurement": "Activity", "setting": "[15]", "value": "Non-Toxic"},
      {"measurement": "Stability", "setting": "[16]", "value": "Stable"},
      {"measurement": "Activity", "setting": "Mus musculus [17]", "value": "Active"},
      {"measurement": "concentration at 0.5 h", "setting": "[18]", "value": 35300, "unit": "ng/g"},
      {"measurement": "Activity", "setting": "[19]", "value": "Non-Toxic"},
      {"measurement": "Activity", "setting": "[20]", "value": "Non-Toxic"},
      {"measurement": "Activity", "setting": "[21]", "value": "Non-Toxic"},
      {"measurement": "Activity", "setting": "[22]", "value": "Non-Toxic"},
      {"measurement": "Activity", "setting": "[23]", "value": "Non-Toxic"},
      {"measurement": "Activity", "setting": "[24]", "value": "Non-Toxic"},
      {"measurement": "Activity", "setting": "[25]", "value": "Non-Toxic"},
      {"measurement": "Activity", "setting": "[26]", "value": "Non-Toxic"},
      {"measurement": "inhibition", "setting": "[27]", "value": "inactive"},
      {"measurement": "Activity", "setting": "[28]", "value": "Non-Toxic"},
      {"measurement": "Activity", "setting": "[29]", "value": "Non-Toxic"},
      {"measurement": "Drug uptake", "setting": "[30]", "value": "Active"},
      {"measurement": "CC50 at 24 h", "setting": "[31]", "value": "> 30", "unit": "µM"},
      {"measurement": "Activity", "setting": "[32]", "value": "Non-Toxic"},
      {"measurement": "Activity", "setting": "Mus musculus [33]", "value": "Active"},
      {"measurement": "Activity", "setting": "[34]", "value": "Non-Toxic"},
      {"measurement": "inhibition", "setting": "[35]", "value": "Active"},
      {"measurement": "Activity", "setting": "Mus musculus [36]", "value": "Active"},
      {"measurement": "Activity", "setting": "[37]", "value": "Non-Toxic"},
      {"measurement": "Activity", "setting": "[38]", "value": "Non-Toxic"},
      {"measurement": "Activity", "setting": "[39]", "value": "Non-Toxic"},
      {"measurement": "Activity", "setting": "Mus musculus [40]", "value": "Active"},
      {"measurement": "Activity", "setting": "Mus musculus [41]", "value": "Active"}
    ]}
  ]
}
